In ChEMBL document CHEMBL1126016, “Inhibitors of protein kinase C. 1. 2,3-Bisarylmaleimides” (J Med Chem, 1992):

Tests used:
[1] = Inhibition of calcium/calmodulin-dependent protein kinase
Phosphorylase kinase = assay: Inhibition of phosphorylase kinase.; format: protein-complex assay

Work on `COC(=O)[C@@]1(O)C[C@H]2O[C@]1(C)n1c3ccccc3c3c4c(c5c6ccccc6n2c5c31)C(=O)NC4` (single isomer, unassigned) [K-252A] yielded an IC50 [1] of 270 nM and an IC50 (Phosphorylase kinase) of 1.7 nM.
